System: KLH antibody
Test: Influence on keyhole limpet hemoeyanin (KLH) antibody level in immunized mice, serum ELISA potency assay
Assay type: in vivo, mouse
Conditions: for KLH antibody ELISA OD value, data obtained after the third immunization (1: 1K) / KLH antibody ELISA OD value, data obtained after the fourth immunization (1: 1K) / KLH antibody ELISA OD value, data obtained after the third immunization (1: 3K) / KLH antibody ELISA OD value, data obtained after the fourth immunization (1: 3K): Balb/c mice immunized with KLH, test substance given on day 0 and day 7, x ± sd; for KLH antibody ELISA OD value, data obtained after the third immunization (1: 1K) / KLH antibody ELISA OD value, data obtained after the fourth immunization (1: 1K): serum dilution 1:1K; for KLH antibody ELISA OD value, data obtained after the third immunization (1: 1K) / KLH antibody ELISA OD value, data obtained after the third immunization (1: 3K): tail blood day 28-29; for KLH antibody ELISA OD value, data obtained after the fourth immunization (1: 1K) / KLH antibody ELISA OD value, data obtained after the fourth immunization (1: 3K): tail blood day 40-41; for KLH antibody ELISA OD value, data obtained after the third immunization (1: 3K) / KLH antibody ELISA OD value, data obtained after the fourth immunization (1: 3K): serum dilution 1:3K
Protocol: 2.4.1. Antigenic Information: Immunogen: KLH; Tested Substance: KLH
Primary immunization: On the first day, 100 ug antigen (immunogen) and Freund's complete adjuvant in the same volume were formed into a water-in-oil compound by means of mutual injection with a syringe, and then the compound was given to each of 18 mice by subcutaneous multi-point injection.
Second immunization: On the 14th day, 100 ug antigen (immunogen) and Freund's incomplete adjuvant in the same volume were formed into a water-in-oil compound by means of mutual injection with a syringe, and then the compound was given to each of 18 mice by subcutaneous multi-point injection.
Third immunization: On the 24th day, 100 ug antigen (immunogen) and Freund's incomplete adjuvant in the same volume were formed into a water-in-oil compound by means of mutual injection with a syringe, and then the compound was given to each of 18 mice by subcutaneous multi-point injection.
Test of tail blood: On the 28th-29th day, about 20 ul tail blood was collected from the tail vein, followed by 30 min RT and 5 min 5000 rpm centrifugation; then haemocyte precipitate was removed; and serum was taken for Elisa potency assay.
Fourth immunization: On the 34th day, 100 ug antigen (immunogen) and Freund's incomplete adjuvant in the same volume were formed into a water-in-oil compound by means of mutual injection with a syringe, and then the compound was given to each of 18 mice by subcutaneous multi-point injection.
Group G2 (Group IV): immunization was performed with reference to group G1; moreover, […] JK1208R (prepared in Example 1) was given by intravenous injection on the 0th day and 7th day, respectively.
Group G2 (Group IV): immunization was performed with reference to group G1; moreover, 52 μg rapamycin was given by oral administration on the 0th day and 7th day, respectively.
Test of tail blood: On the 40th-41st day, about 20 ul tail blood was collected from the tail vein, followed by 30 min RT and 5 min 5000 rpm centrifugation; then haemocyte precipitate was removed; and serum was taken for ELISA potency assay.
Coating: 10 ug antigen (tested substance) and 10 ml coating buffer (1.6 g […]+2.92 g NaHCO3+100 ml deionized water) were mixed; the solution was applied to the Elisa microplate, 100 ul per pore; the microplate was incubated for 2 h at 37° C. or kept still overnight at 4° C.
Blocking: The antigen coating buffer was sucked and removed from the coated microplate; a blocking buffer (5% dried skimmed milk and coating buffer) was directly added, 150 ul per pore; the microplate was treated for 2 h at 37° C., followed by three times of washing with de-ionized water; then the microplate was provisionally stored at 4° C.
Assay: serum and 1×PBS was mixed at a ratio of 1:1000; 150 ul diluent was added into the first pore; 100 ul 1×PBS were respectively added into each of the 2nd-8th pores; 50 ul liquid was transferred from the first pore into the second pore, followed by suction blow for 10 times; then, 50 ul liquid was transferred into the third pore, followed by suction blow for 10 times; next, 50 ul liquid was transferred into the fourth pore, followed by suction blow for 10 times; the test was done in the similar way in turn until the 7th pore, 50 ul liquid was removed from the 7th pore; the […] pore was a negative control group; the microplate was incubated for 1 h at 37° C., followed by three times of washing with de-ionized water; then a second antibody (goat-anti-mouse IgG-HRP 1:10000 1×PBS) was added, 100 ul each pore; the microplate was incubated for 30 min at 37° C., followed by three times of washing with de-ionized water; a chromogenic solution was added (according to the instructions on the reagent box), 100 ul each pore; the microplate was incubated for 10 min at 37° C. and then ended (2M sulphuric acid, 30 ul per pore). The OD value was tested with the microplate reader.

Row | Compound | KLH antibody ELISA OD value, data obtained after the third immunization (1: 1K) | KLH antibody ELISA OD value, data obtained after the fourth immunization (1: 1K) | KLH antibody ELISA OD value, data obtained after the third immunization (1: 3K) | KLH antibody ELISA OD value, data obtained after the fourth immunization (1: 3K) | Effect on generation of the KLH antibody (after the fourth immunization) | Statistical difference from immune model group after the fourth immunization (at 1:1K and 1:3K) | Statistical difference from immune model group after the third immunization (at 1:3K)
1 | CO[C@H]1C[C@@H]2CC[C@@H](C)[C@@](O)(O2)C(=O)C(=O)N2CCCC[C@H]2C(=O)O[C@H]([C@H](C)C[C@@H]2CC[C@@H](O)[C@H](OC)C2)CC(=O)[C@H](C)/C=C(\C)[C@@H](O)[C@@H](OC)C(=O)[C@H](C)C[C@H](C)/C=C/C=C/C=C/1C [rapamycin] | 1.77 ± 0.33 | 2.56 ± 0.11 | 1.49 ± 0.38 | 2.40 ± 0.24 | – | – | –
2 | monomethoxy polyethylene glycol-glutamic dipeptide-rapamycin [JK1208R] | 1.33 ± 0.24 | 1.85 ± 0.32 | 0.86 ± 0.20 | 1.54 ± 0.31 | could remarkably resist the generation of the KLH antibody | show remarkably difference | show remarkably difference

Reference: patent publication US20210023232A1, “COMBINATION OF POLYETHYLENE GLYCOL AND RAPAMYCIN AND USE THEREOF” (JENKEM TECHNOLOGY CO., LTD. (TIANJIN), priority 2018, published 2021)
